From US20250003952A1, “SENOLYTIC DRUG SCREENING METHOD AND SENOLYTIC DRUG” (KYOTO UNIVERSITY, priority 2021, published 2025)
Peptide text beside a SMILES is read from it. * marks the point of attachment. Cbz = O=C(OCc1ccccc1)*

Columns and labels:
[1] = system: IMR90 cells; assay: Secondary screening: senolytic activity, young vs senescent IMR90 cells, crystal violet; format: cell-based, human; conditions: young vs Ras-induced senescent IMR90 cells; 5 μM and 10 μM; 72 hours; criterion of positivity 1.14 or more
Experimental: In the secondary screening, the agent sensitivity of young IMR90 cells and senescent IMR90 cells was compared. The senescent IMR90 cells were prepared by inducing an oncogenic Ras mutation. The young cells and the senescent cells were each seeded in a 96-well plate, and two days later, the candidate drugs obtained from the primary screening were treated at two concentrations of 5 μM and 10 μM. Surviving cells after 72 hours were fixed with formalin and stained with crystal violet. After that, crystal violet in each well was extracted with 2% Triton X100 and quantified (FIG. 31-1 and FIG. 31-2). Young cells and senescent cells were each treated with a solvent (DMSO), and the resulting cells were used as a negative control, and the survival rate compared to the negative control was calculated by the following expression. Furthermore, the agent sensitivity of the young cells and the senescent cells was compared and evaluated as senolytic activity (young cell viability/senescent cell viability). The criterion of positivity was a senolytic activity of 1.14 or more.
Viability(%)=(Sample/negative subject)×100
Senolytic activity=young cell viability/senescent cell viability

[2] = system: PGAM-Chk1 kinase binding; conditions: cancer cells; Mikawa et al., 2020; cited from earlier work
[3] = system: IMR90 cells; assay: Senolysis / cell death of young and Ras-induced senescent IMR90 cells; format: cell-based, human
Excerpt: Ras gene with oncogenic mutation was introduced into young cells (within 1 month of continuous culture) of IMR90 cells by retroviral infection to acquire senescent cells. […] The control received only DMSO treatment. Representative images of cells observed under a microscope are shown (FIG. 11).
An oncogenic mutated Ras gene was introduced into young cells (within 1 month of continuous culture) of IMR90 cells by retroviral infection to acquire stress-induced senescent cells. The young cells and the senescent cells were both treated with different concentrations of the RSK kinase inhibitor BI-D1870 for 96 hours to evaluate cell death.
An oncogenic mutated Ras gene was introduced into young cells (within 1 month of continuous culture) of IMR90 cells by retroviral infection to acquire stress-induced senescent cells. The young cells and the senescent cells of IMR90 were both transfected with an RSK1 siRNA (two types of siRNA #1 (SEQ ID NO: 7) or #2 (SEQ ID NO: 8) having different target sequences) or a control to knock down RSK1. Representative images of cells observed under a microscope are shown (upper diagram in FIG. 20).
An oncogenic Ras was introduced into young cells (within 1 month of continuous culture) of IMR90 cells to induce senescent cells (OIS). The young cells and the senescent cells of IMR90 were transfected with two HIF-2α-specific siRNAs (SEQ ID NO: 9 and SEQ ID NO: 10) having different target sequences to knock down HIF-2α.
An oncogenic Ras was introduced into young cells (within 1 month of continuous culture) of IMR90 cells to induce senescent cells (OIS). The young cells and the senescent cells of IMR90 were transfected with a BIM-specific siRNA to knock down BIM.
An oncogenic Ras was introduced into young cells (within 1 month of continuous culture) of IMR90 cells to induce senescent cells (OIS). In the young cells and the senescent cells of IMR90, HIF-2α alone or both HIF-2α and BIM were knocked down by using their respective specific siRNAs (SEQ ID NO: 9, SEQ ID NO: 10), and cell death was confirmed (FIG. 28).
The latter information consists of 12,655 ChIP datasets from 903 antigens (transcription factors and epigenetic regulators).

[4] = system: HIF-2α; assay: HIF-2α protein (Western blot) and mRNA expression in IMR90 cells; format: cell-based, human
Excerpt: As a result, it was observed that the HIF-2α protein decreased in the nutlin 3b-treated group and the BI-D1870-treated group (upper diagram and lower diagram in FIG. 22).
An oncogenic Ras was introduced into young cells (within 1 month of continuous culture) of IMR90 cells to induce senescent cells (OIS). […] It is known that ubiquitination is induced by phosphorylation in the vicinity of a ubiquitination site (Hagai et al., 2012). The consensus sequences (K/R-K/R-x-x-S/T) for phosphorylation by Chk1 located at the N-terminus of HIF-2α were conserved, and these were named Motif1 (including Ser12 residues) and Motif2 (including Ser19 residues) (FIG. 40, SEQ ID NOs: 77 to 81).

[5] = system: human fibroblasts; assay: Lactate treatment of human fibroblasts; format: cell-based
Experimental: In order to explore the physiological significance of enhanced glycolysis in senescence, a conditioned medium consisting of senescent cells and non-senescent cells was prepared and added to human fibroblasts at the early passage. PGAM-Chk1 interaction was potentiated by culture supernatant from the senescent cells, but not potentiated in the control (FIG. 44). It was considered from this that a component potentiating the PGAM-Chk1 interaction was included in the culture supernatant from the senescent cells. Lactate was considered to be a candidate for such a component, and human fibroblasts were treated with lactate. […] GPR81 signaling is known to be partially involved in oncogenic modules including the Ras pathway (Ohno et al., 2018). In senescent cells or lactate-treated cells, it was observed that RSK1 kinase, which is downstream of the Ras pathway, was activated, accompanied by phosphorylation of Ser280 of Chk1 (Li et al., 2012), which is a known target of RSK (FIG. 49).

[6] = human fibroblasts treated with lactate

Row | Compound | senolytic activity (young cell viability/senescent cell viability) [1] | other results
1 | Cc1ccc(-n2nc(C(C)(C)C)cc2NC(=O)Nc2ccc(OCCN3CCOCC3)c3ccccc23)cc1 [Doramapimod (BIRB 796), Doramapimod] | have senolytic activity | –
2 | COc1ccc(-c2ccc3c(N4CCOC[C@@H]4C)nc(N4CCOC[C@@H]4C)nc3n2)cc1CO [AZD8055] | have senolytic activity | –
3 | COC(=O)c1ccc2c(c1)NC(=O)/C2=C(\Nc1ccc(N(C)C(=O)CN2CCN(C)CC2)cc1)c1ccccc1 [Vargatef] | have senolytic activity | –
4 | Verteporfin | have senolytic activity | –
5 | COc1ccc(-c2ccc3c(N4CCOCC4)nc(N4C[C@@H](C)O[C@@H](C)C4)nc3n2)cc1CO [KU-0063794] | have senolytic activity | –
6 | CC(C)CCN1c2nc(Nc3cc(F)c(O)c(F)c3)ncc2N(C)C(=O)C1C (stereo not drawn) [BI-D1870] | – | PGAM-Chk1 kinase binding [2]: inhibited; glycolytic metabolism [2]: decreased; senolytic effect (cell death) ([3]; young and senescent IMR90 cells, 96 hours, 10 μM or 20 μM): remarkable senolytic effect; HIF-2α protein ([4]; young and senescent cells, different concentrations for 96 hours): decreased
7 | Cc1ccc2nc(NCCN)c3ncc(C)n3c2c1 [BMS-345541] | have senolytic activity | –
8 | CC(C)[C@H](NC(=O)c1ccc2ccccc2n1)C(=O)N[C@@H](CC(=O)O)C(=O)COc1c(F)cccc1F [QVD-Oph] | – | viability of senescent cells under nutlin 3b treatment ([3]; senescent cells, nutlin 3b plus apoptosis inhibitor): restored
9 | CN(C)C1CCN(C(=O)c2ccc(NC(=O)Nc3ccc(-c4nc(N5CCOCC5)nc(N5CCOCC5)n4)cc3)cc2)CC1 [PF-05212384] | have senolytic activity | –
10 | O=C(O)c1ccc2c(c1)nc(Nc1cccc(Cl)c1)c1ccncc12 [CX-4945] | have senolytic activity | –
11 | CC(C)c1ccccc1Cc1cc(C(=O)Nc2ccc(S(=O)(=O)c3ccccc3C(C)(C)C)cc2)c(O)c(O)c1O [TW-37] | have senolytic activity | –
12 | Cc1ccc(C(=O)Nc2cccc(C(F)(F)F)c2)cc1Nc1nc(-c2cccnc2)nc2c1cnn2C [NVP-BHG712] | have senolytic activity | –
13 | CC(C)c1cc(-c2ccc(F)c3ccccc23)nc(N)n1 [RS-127445] | have senolytic activity | –
14 | CC[C@H](C)C(=O)O[C@H]1CCC=C2C=C[C@H](C)[C@H](CC[C@@H]3C[C@@H](O)CC(=O)O3)[C@H]21 [Mevastatin] | have senolytic activity | –
15 | CC(C)C[C@@H](C=O)NC(=O)[C@H](CC(C)C)NC(=O)[C@H](CC(C)C)NC(=O)OCc1ccccc1 [MG132] (Cbz-Leu-Leu-Leu-aldehyde) | – | HIF-2α protein level under nutlin 3b treatment ([4]; senescent (OIS) IMR90 cells treated with nutlin 3b plus proteasome inhibitor): remarkably restored
16 | CC(/C=C/C(=O)NO)=C\[C@@H](C)C(=O)c1ccc(N(C)C)cc1 [Trichostatin A (TSA), Trichostatin A] | have senolytic activity | –
17 | CC(O)C(=O)O (stereo not drawn) [lactate] | – | SASP expression [5, 6]: stimulated; accumulation of HIF-2α [5, 6]: observed in a lactate concentration-dependent manner; enhancement of PGAM-Chk1 interaction [5, 6]: observed in a lactate concentration-dependent manner; p21 level vs control [5, 6]: did not provide a difference; phosphorylation of Ser12 of HIF-2α [5, 6]: observed in a lactate concentration-dependent manner; RSK1 kinase activation (accompanied by phosphorylation of Ser280 of Chk1) ([5]; lactate-treated cells): activated
18 | C[S+]([O-])c1ccc(-c2nc(-c3ccncc3)c(-c3ccc(F)cc3)[nH]2)cc1 (stereo not drawn) [SB203580] | have senolytic activity | –
19 | CCOc1cc2ncc(C#N)c(Nc3ccc(OCc4ccccn4)c(Cl)c3)c2cc1NC(=O)/C=C/CN(C)C [Neratinib] | have senolytic activity | –
